Laboratory results: patent publication US5023340A, “Pyrrolizioines and synthesis thereof” (Monsanto Company, priority 1989, dated 1991)

Assays:
[1] = tested on: processing forms of α-mannosidase; details: literature; cited from earlier work
lysosomal α-mannosidase [2] = target: T1, lysosomal α-mannosidase (Homo sapiens, UniProt O00754); test: inhibition of human liver glycosidases: lysosomal α-mannosidase; format: biochemical
T1 construct: from tissue; host or cells: human liver
T1 sequence (O00754 50-601 limits assumed): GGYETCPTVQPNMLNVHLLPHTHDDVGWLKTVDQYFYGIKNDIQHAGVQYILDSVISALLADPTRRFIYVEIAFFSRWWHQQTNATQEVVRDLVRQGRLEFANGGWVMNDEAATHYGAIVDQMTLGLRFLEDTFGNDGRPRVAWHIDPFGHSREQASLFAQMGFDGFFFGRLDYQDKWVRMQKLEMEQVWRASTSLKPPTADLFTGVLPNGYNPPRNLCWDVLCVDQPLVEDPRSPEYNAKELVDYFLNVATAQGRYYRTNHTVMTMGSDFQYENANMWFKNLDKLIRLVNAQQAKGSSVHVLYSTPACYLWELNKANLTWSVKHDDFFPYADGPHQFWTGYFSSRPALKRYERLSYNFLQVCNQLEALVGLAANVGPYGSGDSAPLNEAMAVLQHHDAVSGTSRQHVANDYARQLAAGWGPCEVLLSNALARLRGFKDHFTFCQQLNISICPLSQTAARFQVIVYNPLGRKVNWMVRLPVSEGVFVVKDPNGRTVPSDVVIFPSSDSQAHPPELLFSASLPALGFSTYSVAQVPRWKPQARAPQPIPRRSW
T1 sequence (O00754 602-882 limits assumed): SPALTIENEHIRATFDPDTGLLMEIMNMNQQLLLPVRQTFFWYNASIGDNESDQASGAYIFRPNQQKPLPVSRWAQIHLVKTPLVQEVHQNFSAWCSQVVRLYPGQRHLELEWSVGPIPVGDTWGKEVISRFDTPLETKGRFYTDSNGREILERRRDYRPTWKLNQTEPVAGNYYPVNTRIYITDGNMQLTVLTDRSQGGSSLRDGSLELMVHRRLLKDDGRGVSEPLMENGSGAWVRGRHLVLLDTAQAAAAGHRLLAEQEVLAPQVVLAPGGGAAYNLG
T1 sequence (O00754 883-1011 limits assumed): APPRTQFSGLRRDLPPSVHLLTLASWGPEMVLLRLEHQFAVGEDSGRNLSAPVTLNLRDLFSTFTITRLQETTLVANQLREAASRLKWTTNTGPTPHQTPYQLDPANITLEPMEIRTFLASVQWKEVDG
Excerpt: (§1) The effects of the ring contracted swainsonines (3) and (4) on the inhibition of 14 human liver glycosidases was studied by the assay methods described in Palamarczyk et al., Arch. Biochem. Biophys. 243, 35 (1985); Daniel et al., Glycoconjugate J. 6, 229 (1989) and Cenci di Bello et al., Biochem. J. 259, 855 (1989). […] Chem. Commun.

lysosomal α-mannosidase [3] = details: literature; cited from earlier work
[4] = tested on: human liver α-mannosidases; test: inhibition of human liver α-mannosidases; format: biochemical
Excerpt: as §1

glycosidases = test: inhibition of glycosidases (general statement); format: biochemical; details: compared with swainsonine
[5] = tested on: broad specificity β-galactosidase/β-glucosidase; test: inhibition of human liver glycosidases: broad specificity β-galactosidase/β-glucosidase; format: biochemical
Excerpt: as §1

amyloglucosidase = details: literature (Nash et al.); cited from earlier work
almond β-glucosidase = test: inhibition of almond β-glucosidase; format: biochemical
[6] = tested on: bovine kidney α-fucosidase; test: inhibition of bovine kidney α-fucosidase; format: biochemical
β-galactosidase = test: inhibition of human liver glycosidases: β-galactosidase; format: biochemical; details: 1 mM
Excerpt: as §1

[7] = tested on: Aspergillus niger α-galactosidase; test: inhibition of Aspergillus niger α-galactosidase; format: biochemical
[8] = target: green coffee bean α-galactosidase (Coffea arabica, UniProt Q42656); test: inhibition of green coffee bean α-galactosidase; format: biochemical
Chain of green coffee bean α-galactosidase (Q42656 16-378): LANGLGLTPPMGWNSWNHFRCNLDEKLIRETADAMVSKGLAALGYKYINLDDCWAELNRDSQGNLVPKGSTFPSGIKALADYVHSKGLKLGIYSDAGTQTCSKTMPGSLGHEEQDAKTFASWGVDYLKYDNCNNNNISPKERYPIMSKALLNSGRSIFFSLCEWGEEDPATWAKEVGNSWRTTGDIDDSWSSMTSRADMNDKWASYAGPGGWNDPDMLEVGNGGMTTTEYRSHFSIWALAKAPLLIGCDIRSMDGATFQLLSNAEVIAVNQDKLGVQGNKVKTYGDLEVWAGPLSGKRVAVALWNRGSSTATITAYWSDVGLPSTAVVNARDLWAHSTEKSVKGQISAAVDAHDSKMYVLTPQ

α-fucosidase = test: inhibition of human liver glycosidases: α-fucosidase; format: biochemical; details: 1 mM
Excerpt: as §1

snail β-mannosidase = test: inhibition of snail β-mannosidase; format: biochemical
bovine β-hexosaminidase = test: inhibition of bovine β-hexosaminidase; format: biochemical
[9] = tested on: Golgi II processing mannosidase; test: inhibition of human liver glycosidases: Golgi II mannosidase; format: biochemical; details: compared with swainsonine
Excerpt: as §1

bovine β-galactosidase = test: inhibition of bovine β-galactosidase; format: biochemical
Jack bean α-mannosidase = target: T2, Jack bean α-mannosidase (Canavalia ensiformis, UniProt C0HJB3); test: inhibition of Jack bean α-mannosidase; format: biochemical
T2 sequence (C0HJB3 1-981): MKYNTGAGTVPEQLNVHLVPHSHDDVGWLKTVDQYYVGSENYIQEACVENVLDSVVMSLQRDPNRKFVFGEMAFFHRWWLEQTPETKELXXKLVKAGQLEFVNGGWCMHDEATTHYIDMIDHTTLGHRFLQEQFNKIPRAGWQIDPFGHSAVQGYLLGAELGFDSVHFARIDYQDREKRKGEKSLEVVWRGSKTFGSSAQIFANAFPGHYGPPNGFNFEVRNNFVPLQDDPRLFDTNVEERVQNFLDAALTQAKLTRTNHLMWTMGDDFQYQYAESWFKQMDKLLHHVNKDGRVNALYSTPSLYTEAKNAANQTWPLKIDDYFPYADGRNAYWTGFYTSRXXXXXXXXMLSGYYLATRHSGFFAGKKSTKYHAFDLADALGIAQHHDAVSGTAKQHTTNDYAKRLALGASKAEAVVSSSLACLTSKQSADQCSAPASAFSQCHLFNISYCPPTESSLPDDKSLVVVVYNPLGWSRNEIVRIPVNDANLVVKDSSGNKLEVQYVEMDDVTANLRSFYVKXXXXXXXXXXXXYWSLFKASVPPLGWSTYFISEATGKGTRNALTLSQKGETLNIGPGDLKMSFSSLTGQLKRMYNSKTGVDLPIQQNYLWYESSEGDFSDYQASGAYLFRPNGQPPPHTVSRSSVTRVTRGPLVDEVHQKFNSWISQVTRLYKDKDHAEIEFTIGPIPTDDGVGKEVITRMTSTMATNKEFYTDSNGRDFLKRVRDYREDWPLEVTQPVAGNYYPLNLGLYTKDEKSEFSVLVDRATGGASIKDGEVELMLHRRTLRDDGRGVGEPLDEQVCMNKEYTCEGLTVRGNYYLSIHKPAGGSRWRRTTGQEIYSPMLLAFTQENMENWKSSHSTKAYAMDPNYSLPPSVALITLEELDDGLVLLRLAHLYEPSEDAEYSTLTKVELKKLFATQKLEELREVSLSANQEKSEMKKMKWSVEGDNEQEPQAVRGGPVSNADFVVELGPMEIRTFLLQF

[10] = tested on: neutral processing mannosidase; test: inhibition of human liver glycosidases: neutral processing mannosidase; format: biochemical; details: compared with swainsonine
Excerpt: as §1

yeast α-glucosidase = test: inhibition of yeast α-glucosidase; format: biochemical

O[C@H]1[C@H]2[C@H](O)CCCN2C[C@H]1O [Compound 1, (1S,2R,8R,8aR)-1,2,8-Trihydroxyindolizidine]
inhibition of some of the processing forms of α-mannosidase [1]: potent and specific inhibitor
Ki (lysosomal α-mannosidase [2]; lysosomal α-mannosidase, comparator): 0.07 µM
inhibition of lysosomal α-mannosidase (lysosomal α-mannosidase [3]): potent and specific inhibitor

O[C@H]1[C@H]2[C@@H](O)CCN2C[C@H]1O [Compound 4, (1S,2R,7S,7aR)-1,2,7-Trihydroxypyrrolizidine]
inhibition of human liver α-mannosidases [4]: does not inhibit
glycosidase inhibitory activity (glycosidases): weaker such activity than swainsonine
inhibition of broad specificity β-galactosidase/β-glucosidase ([5]; concentration not given): 40%

OC[C@@H]1[C@@H](O)[C@@H](O)[C@H]2[C@@H](O)CCN21 [Compound 5, 1,7a-diepialexine]
amyloglucosidase inhibition (amyloglucosidase): powerful amyloglucosidase inhibitor

O[C@H]1[C@H]2[C@H](O)CCN2C[C@H]1O [Compound 3, (1S,2R,7R,7aR)-1,2,7-Trihydroxypyrrolizidine]
inhibition of almond β-glucosidase (almond β-glucosidase): no significant inhibition
inhibition of bovine kidney α-fucosidase [6]: no significant inhibition
inhibition of β-galactosidase (β-galactosidase): 69%
inhibition of Aspergillus niger α-galactosidase [7]: no significant inhibition
IC50 (lysosomal α-mannosidase [2]; human liver lysosomal α-mannosidase, read-out: I50): 1500 µM
glycosidase inhibitory activity (glycosidases): weaker such activity than swainsonine
inhibition of green coffee bean α-galactosidase [8]: no significant inhibition
inhibition of α-fucosidase (α-fucosidase): 33%
inhibition of snail β-mannosidase (snail β-mannosidase): no significant inhibition
inhibition of bovine β-hexosaminidase (bovine β-hexosaminidase): no significant inhibition
inhibition of Golgi II processing mannosidase [9]: less effective
inhibition of bovine β-galactosidase (bovine β-galactosidase): no significant inhibition
Ki (Jack bean α-mannosidase): 1700 µM
inhibition of neutral processing mannosidase [10]: less effective
inhibition of broad specificity β-galactosidase/β-glucosidase ([5]; 1 mM): 25%
inhibition of yeast α-glucosidase (yeast α-glucosidase): no significant inhibition
